Experimental data as given in ChEMBL document CHEMBL3727348, “3-(aryl or heteroaryl) methyleneindolin-2-one derivatives as inhibitors of cancer stem cell pathway kinases for the treatment of cancer” (2014).

Legend:
Type in all cases: functional, cell-based
FaDu [1] = assay: Cytotoxic activity against human FADU cancer stem cells incubated for 72 hrs by Cell-titer-Glo luminescence assay
A549 [2] = assay: Cytotoxic activity against human A549 cancer stem cells incubated for 72 hrs by Cell-titer-Glo luminescence assay; details: A549, 72 h
FaDu [3] = assay: Cytotoxic activity against human FADU bulk cells incubated for 72 hrs by Cell-titer-Glo luminescence assay
A549 [4] = assay: Cytotoxic activity against human A549 bulk cells incubated for 72 hrs by Cell-titer-Glo luminescence assay; details: A549, 72 h
ACHN [5] = assay: Cytotoxic activity against human ACHN bulk cells incubated for 72 hrs by Cell-titer-Glo luminescence assay
ACHN [6] = assay: Cytotoxic activity against human ACHN cancer stem cells incubated for 72 hrs by Cell-titer-Glo luminescence assay

SMILES	IC50 (FaDu [1]) [µM]	IC50 (A549 [2]) [µM]	IC50 (FaDu [3]) [µM]	IC50 (A549 [4]) [µM]	IC50 (ACHN [5]) [µM]	IC50 (ACHN [6]) [µM]
CCN(CC)CCN(C)C(=O)c1c(C)[nH]c(/C=C2\C(=O)Nc3ccc(-c4csc(-c5ccccc5)n4)cc32)c1C	3.6	10.5	18.3	9.94	11.3	0.69
CCN(CC)CCNC(=O)c1c(C)[nH]c(/C=C2\C(=O)Nc3ccc(-c4cnccn4)cc32)c1C	0.23	13.2	6.62	10.6	10.1	2.65
CCN(CC)CCNC(=O)c1c(C)[nH]c(/C=C2\C(=O)Nc3ccc(-c4ccc(C(=O)O)s4)cc32)c1C	4.3	8.82	1.21	2.2	2.04	2.28
CCN(CC)CCNC(=O)c1c(C)[nH]c(/C=C2\C(=O)Nc3ccc(-c4cnc5cn[nH]c5c4)cc32)c1C	0.16	26.4	1.49	3.24	2.74	10.8
CCN(CC)CCNC(=O)c1c(C)[nH]c(/C=C2\C(=O)Nc3ccc(-c4ccccn4)cc32)c1C	0.18	5.45	2.56	7.23	2.26	1.06
CCN(CC)CCNC(=O)c1c(C)[nH]c(/C=C2\C(=O)Nc3cc(-c4ccc(C(=O)c5ccccc5)cc4)ccc32)c1C	1.46	3.16	4.46	3.65	4.11	1.63
Cc1cc(C)c(/C=C2\C(=O)Nc3ccc(-c4ccc(O)cc4C)cc32)[nH]1	14.4	36.8	14.7	12.5	14.9	21.1
O=C1Nc2ccc(-c3csc(C4CCNCC4)n3)cc2/C1=C/c1cc2c([nH]1)CCCC2	12	22.1	21.1	9.39	18.8	2.68
CCN(CC)CCNC(=O)c1c(C)[nH]c(/C=C2\C(=O)Nc3ccc(-c4ccc(-c5ccccc5)nc4)cc32)c1C	3.96	6.45	4.92	2.3	7.41	0.63
CCN(CC)CCNC(=O)c1c(C)[nH]c(/C=C2\C(=O)Nc3ccc(-c4ccc5c(c4)CC(=O)N5)cc32)c1C	15.5	29.2	25.4	19.7	18.9	20.8
CCN(CC)CCNC(=O)c1c(C)[nH]c(/C=C2\C(=O)Nc3ccc(-c4ncccn4)cc32)c1C	0.09	18	6.02	15.4	3.5	1.15
CCN(CC)CCNC(=O)c1c(C)[nH]c(/C=C2\C(=O)Nc3ccc(-c4cccc(C#N)c4C)cc32)c1C	4.73	4.48	4.27	2.8	5.23	0.57
CCN(CC)CCNC(=O)c1c(C)[nH]c(/C=C2\C(=O)Nc3ccc(-c4cnc5ccccc5n4)cc32)c1C	0.04	42.3	2.66	8.13	5.73	5.59
Cc1ccc(-c2nc(-c3ccc4c(c3)/C(=C/c3[nH]c(C)c(C(=O)NCCN5CCCC5)c3C)C(=O)N4)cs2)cc1	0.31	12.2	4.22	5.99	2.32	0.14
CCN(CC)CCNC(=O)c1c(C)[nH]c(/C=C2\C(=O)Nc3ccc(-c4ccc(OC)cn4)cc32)c1C	0.16	8.89	7.01	10.8	6.44	1.08
CCN(CC)CCNC(=O)c1c(C)[nH]c(/C=C2\C(=O)Nc3ccc(-c4cnsc4)cc32)c1C	3.42	6.66	3.17	3.79	4.58	0.64
CCN(CC)CCNC(=O)c1c(C)[nH]c(/C=C2\C(=O)Nc3ccc(-c4cnc5ccccn45)cc32)c1C	17.6	17.2	4.63	5.86	4.65	3.44
CCN(CC)CCNC(=O)c1cc(C)c(/C=C2\C(=O)Nc3ccc(-c4csc(-c5ccccc5)n4)cc32)[nH]1	3.13	26.7	11.4	4	14.9	4.04
CCN(CC)CCNC(=O)c1c(C)[nH]c(/C=C2\C(=O)Nc3ccc(-c4ccncc4)cc32)c1C	16.2	9.85	6.81	7.07	11.6	2.14
CCN(CC)CCNC(=O)c1c(C)[nH]c(/C=C2\C(=O)Nc3ccc(-c4cc(-c5ccccc5)ccn4)cc32)c1C	9.67	2	2.58	1.5	2.41	0.9

SMILES	IC50 (FaDu [1]) [µM]	IC50 (A549 [2]) [µM]	IC50 (FaDu [3]) [µM]	IC50 (A549 [4]) [µM]	IC50 (ACHN [5]) [µM]	IC50 (ACHN [6]) [µM]
CCN(CC)CCNC(=O)c1c(C)[nH]c(/C=C2\C(=O)Nc3ccc(-c4ncccc4OC)cc32)c1C	0.07	6.84	2.63	7.48	7.14	1.41
CCN(CC)CCNC(=O)c1c(C)[nH]c(/C=C2\C(=O)Nc3ccc(-c4ccc(C#N)c(F)c4)cc32)c1C	3.48	12	14	14.5	13.3	1.71
O=C1Nc2ccc(-c3csc(C4CCNCC4)n3)cc2/C1=C/c1cc2ccccc2[nH]1	0.76	2.04	5.16	5.55	4.12	0.1
CCN(CC)CCNC(=O)CCc1c(C)[nH]c(/C=C2\C(=O)Nc3ccc(-c4csc(-c5ccncc5)n4)cc32)c1C	4.57	35.7	28	10.1	7.42	1.24
CCN(CC)CCNC(=O)c1c(C)[nH]c(/C=C2\C(=O)Nc3cc(-c4ccc(O)cc4C)ccc32)c1C	1.54	7.55	2.14	2.76	2.53	2.17
CCN(CC)CCNC(=O)c1c(C)[nH]c(/C=C2\C(=O)Nc3ccc(-c4cscc4C)cc32)c1C	9.1	3.94	3.74	2.01	2.68	0.48
Cc1cc(C)c(/C=C2\C(=O)Nc3ccc(-c4csc(-n5ccnc5)n4)cc32)[nH]1	37.4	35	14.5	9.31	8.84	2.72
CCN(CC)CCNC(=O)c1c(C)[nH]c(/C=C2\C(=O)Nc3ccc(-c4nccc5ccccc45)cc32)c1C	0.03	13.9	2.13	3.18	5.05	0.71
O=C1Nc2ccc(-c3csc(-c4ccncc4)n3)cc2/C1=C/c1cnc[nH]1	22.1	7.18	1.66	9.19	3.61	28.9
Cc1[nH]c(/C=C2\C(=O)Nc3ccc(-c4csc(-c5ccccc5)n4)cc32)c(C)c1S(=O)(=O)N1CCOCC1	0.21	3.73	11.4	7.28	10.7	0.56
CCN(CC)CCNC(=O)c1c(C)[nH]c(/C=C2\C(=O)Nc3cc(-c4csc(-n5cccn5)n4)ccc32)c1C	0.78	2.93	5.3	5.8	2.6	0.17
CCN(CC)CCNC(=O)c1c(C)[nH]c(/C=C2\C(=O)Nc3ccc(-c4cnc5ccccc5c4)cc32)c1C	5.47	6.83	4.59	3.85	6.39	0.62
CCN(CC)CCNC(=O)c1c(C)[nH]c(/C=C2\C(=O)Nc3ccc(-c4csc(-n5ccnc5)n4)cc32)c1C	21.7	18.8	5.57	6.16	9.57	2.99
CCN(CC)CCNC(=O)c1c(C)[nH]c(/C=C2\C(=O)Nc3ccc(-c4nc5ccccc5s4)cc32)c1C	5.97	4.13	4.93	3.73	9.53	0.98
CCN(CC)CCNC(=O)c1c(C)[nH]c(/C=C2\C(=O)Nc3ccc(-c4cnc5cccnn45)cc32)c1C	0.06	6.64	1.74	3.66	3.64	2.73
CCN(CC)CCNC(=O)CCc1c(C)[nH]c(/C=C2\C(=O)Nc3ccc(-c4csc(-c5ccccc5)n4)cc32)c1C	3.53	8.74	3.85	1.11	2.48	4.23
CCN(CC)CCNC(=O)c1c(C)[nH]c(/C=C2\C(=O)Nc3cc(-c4cccc5ncccc45)ccc32)c1C	2.64	8.61	4.83	2.88	2.66	0.42
CCN(CC)CCNC(=O)c1c(C)[nH]c(/C=C2\C(=O)Nc3ccc(-c4ccc(C=O)cc4)cc32)c1C	7.51	5.84	12.1	10.6	2.81	4.34
CCN(CC)CCNC(=O)c1c(C)[nH]c(/C=C2\C(=O)Nc3ccc(-c4cncnc4)cc32)c1C	10.1	18	4.55	7.33	3.66	0.55
COC(=O)c1c(C)[nH]c(/C=C2\C(=O)Nc3ccc(-c4csc(-c5ccncc5)n4)cc32)c1C	6.74	4.8	18.6	9.61	12.6	6.16
